Laboratory results from ChEMBL document CHEMBL3885881, “DrugMatrix”.

Species: Rattus norvegicus
Test: DrugMatrix - Regimen: Daily Repeat
Type: toxicity, organism-based, Sprague-Dawley
Set-up: regimen Daily Repeat, gender Male, age 6-8 weeks
Settings: in vivo, po, 30 mg/kg, route oral GAVAGE, dose level Low, vehicle .5 % CMC; for BASOPHIL / EOSINOPHIL / ERYTHROCYTE COUNT / HEMATOCRIT / HEMOGLOBIN / LEUKOCYTE COUNT / LYMPHOCYTE / MEAN CORPUSCULAR HEMOGLOBIN / MEAN CORPUSCULAR HEMOGLOBIN CONCENTRATION / MEAN CORPUSCULAR VOLUME / MONOCYTE / NEUTROPHIL / PLATELET COUNT: tissue Blood; for ALANINE AMINOTRANSFERASE / ALBUMIN / ALKALINE PHOSPHATASE / ASPARTATE AMINOTRANSFERASE / BLOOD UREA NITROGEN / CHLORIDE / CHOLESTEROL / CREATINE PHOSPHOKINASE / CREATININE / GLUCOSE / PHOSPHORUS / POTASSIUM / SODIUM / TOTAL BILIRUBIN / TOTAL PROTEIN: tissue Plasma

`CCCc1cc(=O)[nH]c(=S)[nH]1` [PROPYLTHIOURACIL] was tested, and the BASOPHIL (72 h, time 3 day) was 0%, the EOSINOPHIL (72 h, time 3 day) was 0.67% and the “ERYTHROCYTE COUNT” value (72 h, time 3 day) was 5.84 x10E6/uL. For the same molecule, the HEMATOCRIT (72 h, time 3 day) was 36.23%, the HEMOGLOBIN (72 h, time 3 day) was 14.13 G/DL and the “LEUKOCYTE COUNT” value (72 h, time 3 day) was 20.27 x10E3/uL. The LYMPHOCYTE (72 h, time 3 day) was 89.33%, the “MEAN CORPUSCULAR HEMOGLOBIN” value (72 h, time 3 day) was 24.23 pg and the “MEAN CORPUSCULAR HEMOGLOBIN CONCENTRATION” value (72 h, time 3 day) was 39 G/DL. For the same molecule, the “MEAN CORPUSCULAR VOLUME” value (72 h, time 3 day) was 62.03 fL, the MONOCYTE (72 h, time 3 day) was 2% and the NEUTROPHIL (72 h, time 3 day) was 8%. For the same molecule, the “PLATELET COUNT” value (72 h, time 3 day) was 1163.33 x10E3/uL, the “ALANINE AMINOTRANSFERASE” value (72 h, time 3 day) was 44 u/L and the ALBUMIN (72 h, time 3 day) was 3.73 G/DL. The “ALKALINE PHOSPHATASE” value (72 h, time 3 day) was 305.67 u/L, the “ASPARTATE AMINOTRANSFERASE” value (72 h, time 3 day) was 56 u/L and the “BLOOD UREA NITROGEN” value (72 h, time 3 day) was 11 mg/dL. The CHLORIDE (72 h, time 3 day) was 106.33 MEQ/L, the CHOLESTEROL (72 h, time 3 day) was 78 mg/dL and the “CREATINE PHOSPHOKINASE” value (72 h, time 3 day) was 125.67 u/L. It also gave a CREATININE (72 h, time 3 day) of 0.47 mg/dL, a GLUCOSE (72 h, time 3 day) of 167.33 mg/dL and a PHOSPHORUS (72 h, time 3 day) of 11 mg/dL. The POTASSIUM (72 h, time 3 day) was 6.5 MEQ/L, the SODIUM (72 h, time 3 day) was 152 MEQ/L and the “TOTAL BILIRUBIN” value (72 h, time 3 day) was 0.3 mg/dL. The “TOTAL PROTEIN” value (72 h, time 3 day) was 5.9 G/DL, the BASOPHIL (120 h, time 5 day) was 0% and the EOSINOPHIL (120 h, time 5 day) was 0%. For the same molecule, the “ERYTHROCYTE COUNT” value (120 h, time 5 day) was 6.26 x10E6/uL, the HEMATOCRIT (120 h, time 5 day) was 37.07% and the HEMOGLOBIN (120 h, time 5 day) was 14.77 G/DL. For the same molecule, the “LEUKOCYTE COUNT” value (120 h, time 5 day) was 11.7 x10E3/uL, the LYMPHOCYTE (120 h, time 5 day) was 87% and the “MEAN CORPUSCULAR HEMOGLOBIN” value (120 h, time 5 day) was 23.6 pg. For the same molecule, the “MEAN CORPUSCULAR HEMOGLOBIN CONCENTRATION” value (120 h, time 5 day) was 39.83 G/DL, the “MEAN CORPUSCULAR VOLUME” value (120 h, time 5 day) was 59.2 fL and the MONOCYTE (120 h, time 5 day) was 1.67%. The NEUTROPHIL (120 h, time 5 day) was 11.33%, the “PLATELET COUNT” value (120 h, time 5 day) was 1185.67 x10E3/uL and the “ALANINE AMINOTRANSFERASE” value (120 h, time 5 day) was 32.67 u/L. For the same molecule, the ALBUMIN (120 h, time 5 day) was 3.53 G/DL, the “ALKALINE PHOSPHATASE” value (120 h, time 5 day) was 297.33 u/L and the “ASPARTATE AMINOTRANSFERASE” value (120 h, time 5 day) was 51.67 u/L. The “BLOOD UREA NITROGEN” value (120 h, time 5 day) was 13.33 mg/dL, the CHLORIDE (120 h, time 5 day) was 108.33 MEQ/L and the CHOLESTEROL (120 h, time 5 day) was 68 mg/dL. The “CREATINE PHOSPHOKINASE” value (120 h, time 5 day) was 112 u/L, the CREATININE (120 h, time 5 day) was 0.53 mg/dL and the GLUCOSE (120 h, time 5 day) was 180.33 mg/dL. The PHOSPHORUS (120 h, time 5 day) was 10.03 mg/dL, the POTASSIUM (120 h, time 5 day) was 6.8 MEQ/L and the SODIUM (120 h, time 5 day) was 149 MEQ/L. The “TOTAL BILIRUBIN” value (120 h, time 5 day) was 0.23 mg/dL and the “TOTAL PROTEIN” value (120 h, time 5 day) was 5.7 G/DL.
